Test results from ChEMBL document CHEMBL1201862, “PubChem BioAssay data set” (2004).
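In this assay, cells in 96-well plates receive the compound at five concentrations for 48 hours. Endpoints are linearly interpolated between the surrounding concentrations. GI50 is the concentration that inhibits growth by half.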 The source made the active and inactive calls. Cut-off read from the data, not from the text of the source: active = GI50 up to about 1.1 µM and inactive = higher.

Legend:
Experiment in all cases: NCI anticancer screen, dose series, 48 h
[1] = test system: ACHN
[2] = test system: HCC 2998
[3] = test system: K562
[4] = test system: HL-60
[5] = test system: EKVX
[6] = test system: DLD-1
[7] = test system: SK-MEL-2
[8] = test system: NCI-H226
[9] = test system: MOLT-4
[10] = test system: KM12
[11] = test system: CAKI-1
[12] = test system: SNB-75
[13] = test system: SF-268
[14] = test system: NCI-H460
[15] = test system: 786-0
[16] = test system: NCI-H23
[17] = test system: UO-31
[18] = test system: SN12C
[19] = test system: MDA-MB-231

Measured: GI50

Cc1cc(N(CCC#N)CCC#N)ccc1/C=C1\N=C(c2cc([N+](=O)[O-])ccc2Cl)N(c2cccc(Cl)c2)C1=O
inactive: [1] > 100 µM | [2] > 100 µM | [3] 96.6 µM | [4] > 100 µM | [5] 23.8 µM | [6] > 100 µM | [7] > 100 µM | [8] > 100 µM | [9] 79.6 µM | [10] > 100 µM | [11] 3.08 µM | [12] > 100 µM | [13] > 100 µM | [14] > 100 µM | [15] > 100 µM | [16] > 100 µM | [17] > 100 µM | [18] > 100 µM

COC(=O)CSc1ccccc1
inactive: [1] > 100 µM | [2] > 100 µM | [3] > 100 µM | [4] > 100 µM | [5] > 100 µM | [6] > 100 µM | [7] 11.5 µM | [9] > 100 µM | [10] > 100 µM | [11] > 100 µM | [12] > 100 µM | [13] > 100 µM | [14] > 100 µM | [15] 11.6 µM | [16] > 100 µM | [17] > 100 µM | [18] > 100 µM

O=c1cc(-c2ccccc2)oc2cc(OCCSCCCCCCCCCCSCCOc3ccc4c(=O)cc(-c5ccccc5)oc4c3)ccc12
inactive: [1] > 100 µM | [2] > 100 µM | [3] > 100 µM | [4] > 100 µM | [5] > 100 µM | [6] > 100 µM | [7] > 100 µM | [9] > 100 µM | [10] > 100 µM | [11] > 100 µM | [12] > 100 µM | [13] 74.3 µM | [15] 73.5 µM | [16] > 100 µM | [17] > 100 µM | [18] > 100 µM

Nc1nc(N)c(CCCCc2ccc([N+](=O)[O-])cc2)c(N)n1
inactive: [1] 27.9 µM | [2] 38.1 µM | [3] 3.86 µM | [4] 2.84 µM | [19] > 100 µM | [5] > 100 µM | [6] 27 µM | [7] > 100 µM | [8] > 100 µM | [9] 8.22 µM | [10] 36.3 µM | [11] > 96.6 µM | [12] > 100 µM | [13] > 50.4 µM | [14] 5.68 µM | [15] 8.67 µM | [16] 10.6 µM | [17] > 100 µM | [18] > 79.4 µM

COC1/C(=C\C(=O)OC(C)(C)C)c2ccccc2N1C(C)=O (configuration not stated)
inactive: [1] > 100 µM | [2] > 100 µM | [3] > 100 µM | [4] 36.2 µM | [5] > 100 µM | [6] > 100 µM | [7] > 100 µM | [9] 81.7 µM | [10] 9.53 µM | [11] > 100 µM | [12] > 100 µM | [14] > 100 µM | [15] > 100 µM | [16] > 100 µM | [17] > 100 µM | [18] > 100 µM

COc1ccc(/C=c2/sc3n(c2=O)NC(c2ccc(Cl)cc2)NN=3)cc1 (configuration not stated)
inactive: [2] > 100 µM | [3] > 100 µM | [5] > 100 µM | [6] > 100 µM | [7] > 100 µM | [8] > 100 µM | [9] > 100 µM | [10] > 100 µM | [11] > 100 µM | [12] 23.1 µM | [13] > 100 µM | [14] > 100 µM | [15] > 100 µM | [16] > 100 µM | [17] > 100 µM | [18] > 100 µM

CSc1nnc2n1-c1ccccc1SCC2
inactive: [1] > 100 µM | [2] > 100 µM | [3] > 100 µM | [4] > 100 µM | [5] > 100 µM | [6] > 100 µM | [7] > 100 µM | [8] > 100 µM | [9] > 100 µM | [10] > 100 µM | [12] > 100 µM | [13] > 100 µM | [14] > 100 µM | [15] > 100 µM | [16] > 100 µM | [17] > 100 µM | [18] > 100 µM

COc1cc2cc[n+]3c4cc(OC)c(OC)cc4c(C)cc3c2cc1OC
inactive: [1] > 100 µM | [2] 61.8 µM | [3] > 100 µM | [4] > 100 µM | [5] > 100 µM | [6] > 100 µM | [7] > 100 µM | [8] > 100 µM | [9] > 100 µM | [10] > 100 µM | [11] > 100 µM | [12] 44.7 µM | [14] > 100 µM | [15] > 100 µM | [16] > 100 µM | [17] > 100 µM | [18] > 100 µM

COc1nc(/C=N/NC(N)=S)nc(OC)n1
inactive: [1] 43.8 µM | [2] 47.1 µM | [3] > 100 µM | [4] 45.8 µM | [5] > 100 µM | [6] > 100 µM | [7] > 100 µM | [8] 69.7 µM | [9] 56.8 µM | [10] > 100 µM | [11] 78.5 µM | [12] 32.7 µM | [13] 61.7 µM | [14] 43.5 µM | [15] 58.3 µM | [16] > 100 µM | [17] 56.1 µM | [18] 71.6 µM

CCCCCCCCCCCCCP(=O)(O)OCC
inactive: [1] > 100 µM | [2] > 100 µM | [4] > 100 µM | [5] > 100 µM | [6] > 100 µM | [7] > 100 µM | [8] > 100 µM | [10] > 100 µM | [12] > 100 µM | [13] > 100 µM | [14] > 100 µM | [15] > 100 µM | [16] > 100 µM | [17] > 100 µM | [18] > 100 µM

CC(C)OP(=S)(NC(=S)c1ccccc1)OC(C)C
inactive: [1] > 100 µM | [2] > 100 µM | [3] > 100 µM | [5] > 100 µM | [6] > 100 µM | [7] > 100 µM | [8] > 100 µM | [9] > 100 µM | [10] > 100 µM | [11] > 100 µM | [12] > 100 µM | [13] > 100 µM | [14] 59 µM | [15] > 100 µM | [16] > 100 µM | [17] > 100 µM | [18] > 100 µM

O=C1C=CC2(O)OCC3C=C4O[C@@H]5OC6(CCCCC6)O[C@@H]5C4[C@@H]2[C@@H]13 (some centres not stated)
inactive: [1] 26.1 µM | [2] 53.2 µM | [3] 14.5 µM | [4] 16.5 µM | [5] 38.3 µM | [6] 22.4 µM | [7] 82 µM | [8] 33.6 µM | [9] 9.25 µM | [10] 38.5 µM | [11] 22.7 µM | [12] 35.6 µM | [13] 33.2 µM | [14] > 100 µM | [15] 20.4 µM | [16] 23.8 µM | [17] 18.6 µM | [18] 48 µM

NCCCC1NC(=O)/C(=C(O)/C=C/C2CCC[C@@H]2CC2SCCS2)C1=O (some centres not stated)
inactive: [1] > 100 µM | [2] > 100 µM | [3] 31.2 µM | [4] 23.3 µM | [5] > 100 µM | [6] > 100 µM | [7] > 100 µM | [8] 71.8 µM | [9] 43.4 µM | [10] > 100 µM | [12] > 100 µM | [13] > 100 µM | [14] > 100 µM | [15] > 100 µM | [16] > 100 µM | [17] > 100 µM | [18] > 100 µM

Cc1nc(-c2nc(C)c(C(=O)NNC(=O)C[n+]3ccccc3)s2)sc1C(=O)NNC(=O)C[n+]1ccccc1
inactive: [1] 59.2 µM | [2] > 100 µM | [3] 78.2 µM | [4] 40.2 µM | [5] 97.3 µM | [6] 19.3 µM | [7] > 100 µM | [8] 39.5 µM | [9] 22.7 µM | [10] > 100 µM | [11] 18.6 µM | [12] 25.5 µM | [13] 39.7 µM | [14] > 100 µM | [15] 35.9 µM | [16] 45.7 µM | [17] 25.9 µM | [18] 67.5 µM

C1=Cc2nc1c(-c1ccccc1)c1nc(c(-c3ccccc3)c3ccc([nH]3)c(-c3ccccc3)c3ccc([nH]3)c2-c2ccccc2)C=C1 [TETRAPHENYLPORPHYRIN]
inactive: [1] > 100 µM | [2] > 100 µM | [3] > 100 µM | [4] > 100 µM | [5] > 100 µM | [6] > 100 µM | [7] > 100 µM | [8] > 100 µM | [9] > 100 µM | [10] > 100 µM | [11] > 100 µM | [12] > 100 µM | [13] > 100 µM | [14] > 100 µM | [15] > 100 µM | [16] > 100 µM | [17] > 100 µM | [18] > 100 µM
